Experimental findings from article PMC6522912, “Evaluation of the published kinase inhibitor set to identify multiple inhibitors of bacterial ATP-dependent mur ligases” (Journal of Enzyme Inhibition and Medicinal Chemistry, 2019) are described below.

One experiment deals with E. coli MurC (Escherichia coli, UniProt P17952). Briefly: Malachite green inhibition assay, MurC. The format is biochemical. The conditions noted are these: for remaining activity at 100 µM: 0.25 h; for RA (%) MurC: Table S3, aza stilbene compounds.
Chain of E. coli MurC (P17952 whole entry): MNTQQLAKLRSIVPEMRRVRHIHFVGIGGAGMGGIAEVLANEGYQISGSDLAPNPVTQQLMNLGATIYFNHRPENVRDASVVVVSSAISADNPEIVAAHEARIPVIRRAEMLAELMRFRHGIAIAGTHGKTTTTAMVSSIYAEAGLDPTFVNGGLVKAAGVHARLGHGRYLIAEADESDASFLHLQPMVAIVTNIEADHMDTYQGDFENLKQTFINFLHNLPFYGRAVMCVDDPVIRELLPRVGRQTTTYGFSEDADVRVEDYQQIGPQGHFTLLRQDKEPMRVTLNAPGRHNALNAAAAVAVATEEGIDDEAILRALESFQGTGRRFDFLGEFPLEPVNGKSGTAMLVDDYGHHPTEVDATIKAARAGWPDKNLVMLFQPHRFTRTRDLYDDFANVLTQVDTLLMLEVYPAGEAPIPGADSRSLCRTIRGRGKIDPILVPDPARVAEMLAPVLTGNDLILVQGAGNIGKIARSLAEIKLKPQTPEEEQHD
The target in the next experiment is E. coli MurD (Escherichia coli, UniProt P14900). Briefly: biochemical. The conditions noted are these: for remaining activity at 100 µM: 0.25 h, read-out: RA [%] at 100 µM MurD. The gist of the method:
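Reaction 15 min at 37 °C, then phosphate detected with Biomol green at 650 nm. Values are residual activity versus 5% DMSO carrier controls.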

The target of a further experiment is E. coli MurF (Escherichia coli, UniProt P11880). Kind of experiment: biochemical. The conditions noted are these: for remaining activity at 100 µM: 0.25 h, read-out: RA [%] at 100 µM MurF; for RA (%) MurF: Table S3, aza stilbene compounds.
Chain of E. coli MurF (P11880 whole entry): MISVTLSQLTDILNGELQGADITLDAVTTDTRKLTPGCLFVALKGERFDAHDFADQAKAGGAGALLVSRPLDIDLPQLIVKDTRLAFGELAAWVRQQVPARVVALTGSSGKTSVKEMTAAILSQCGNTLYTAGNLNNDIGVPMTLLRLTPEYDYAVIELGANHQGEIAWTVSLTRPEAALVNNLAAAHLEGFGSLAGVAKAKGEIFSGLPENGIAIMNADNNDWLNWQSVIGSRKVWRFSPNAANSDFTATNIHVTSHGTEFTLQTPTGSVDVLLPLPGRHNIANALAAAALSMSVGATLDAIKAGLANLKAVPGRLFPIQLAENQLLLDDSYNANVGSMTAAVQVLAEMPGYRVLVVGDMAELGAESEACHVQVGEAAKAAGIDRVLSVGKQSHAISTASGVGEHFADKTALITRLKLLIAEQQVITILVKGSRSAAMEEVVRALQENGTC
[1] abbreviates: Table S1, PKIS screening, read-out: RA [%] at 100 µM MurC.

Where two headings read alike, the source gives them in different places.

Chain of E. coli MurD (P14900 whole entry): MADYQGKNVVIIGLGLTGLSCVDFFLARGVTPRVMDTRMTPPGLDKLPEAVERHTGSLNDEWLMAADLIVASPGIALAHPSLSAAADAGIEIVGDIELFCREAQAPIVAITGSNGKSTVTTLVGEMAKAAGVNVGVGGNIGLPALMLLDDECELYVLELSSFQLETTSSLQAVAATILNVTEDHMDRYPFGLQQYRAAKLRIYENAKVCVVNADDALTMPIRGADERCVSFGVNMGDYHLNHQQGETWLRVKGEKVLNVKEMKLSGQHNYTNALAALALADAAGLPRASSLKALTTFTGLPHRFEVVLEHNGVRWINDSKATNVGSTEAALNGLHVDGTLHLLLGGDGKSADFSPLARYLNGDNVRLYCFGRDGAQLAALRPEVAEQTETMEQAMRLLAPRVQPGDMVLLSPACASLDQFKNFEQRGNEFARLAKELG

Turning to `CCn1c(-c2nonc2N)nc2c(C#CC(C)(C)O)nc(OC[C@@H](N)c3ccccc3)cc21` [GSK938890A], the remaining activity at 100 µM turned out to be 76% at E. coli MurC (setting [1]); 80% on E. coli MurD (Table S1, PKIS screening); 92% at E. coli MurF (Table S1, PKIS screening).
In the case of `CN(C)C(=O)O[C@H]1CN[C@H](C#Cc2cc3ncnc(Nc4ccc(OCc5cccc(F)c5)c(Cl)c4)c3s2)C1` [GSK182497A], the remaining activity at 100 µM at E. coli MurC (setting [1]) was 43%; at E. coli MurD (Table S1, PKIS screening) it was 65%; on E. coli MurF (Table S1, PKIS screening), 76%.
With `CNC(=O)Oc1cc(C)c(/C=C/c2cncc(C(=O)NC)c2)c(C)c1` [GW432441X], the remaining activity at 100 µM on E. coli MurC (read-out: RA [%] at 100 µM MurC) worked out at 68%; at E. coli MurD (Table S1, PKIS screening), 69%; at E. coli MurF, 87%.
On to `CC1=C(C(=O)Nc2ccc3[nH]ncc3c2)C(c2ccc(Cl)c(Cl)c2)CC(=O)N1` (stereo not drawn) [GSK299115A], for which the remaining activity at 100 µM at E. coli MurC (setting [1]) is 78%; at E. coli MurD (Table S1, PKIS screening) it was 96%; on E. coli MurF (Table S1, PKIS screening) it was 68%.
For `Nc1nccc(-c2c(-c3ccc(F)cc3)ncn2CCCN2CCOCC2)n1` [SB-216385] the same measures were 77%, 96% and 98%.
In the case of `Cc1nnc(-c2cccc(-c3ccc(C(=O)NCC4CC4)cc3)c2)o1` [GW734508X], the remaining activity at 100 µM at E. coli MurC (setting [1]) was found to be 89%; on E. coli MurD (Table S1, PKIS screening) it was 100%; on E. coli MurF (Table S1, PKIS screening), 74%.
In the case of `CCc1cccc(NC(=O)Nc2ccc(Oc3ccc4nc(NC(=O)OC)[nH]c4c3)cc2)c1` [GW673715X], the remaining activity at 100 µM on E. coli MurC (setting [1]) turned out to be 79%; at E. coli MurD (Table S1, PKIS screening) it was 83%; at E. coli MurF (Table S1, PKIS screening), 68%.
On to `NS(=O)(=O)c1ccc(N/N=C2\C(=O)Nc3ccc(Cl)cc32)cc1` [GW280670X], for which the remaining activity at 100 µM on E. coli MurC (setting [1]) was determined as 100%; at E. coli MurD (Table S1, PKIS screening), 99%; on E. coli MurF (Table S1, PKIS screening), 76%.
On to `CCc1nccc2c1nc(-c1nonc1N)n2CC` [SB-751148], for which the remaining activity at 100 µM at E. coli MurC (setting [1]) was found to be 75%; on E. coli MurD (Table S1, PKIS screening), 96%; at E. coli MurF (Table S1, PKIS screening), 88%.
For `Nc1ncc(-c2cccc(S(N)(=O)=O)c2)c2scc(-c3ccc(F)c(Cl)c3)c12` [GW856804X] the same measures were 64%, 75% and 71%.
As to `[O-][S+]1CCN(Cc2ccc(-c3ccc4ncnc(Nc5ccc(OCc6cccc(F)c6)c(Cl)c5)c4c3)o2)CC1` [GW576609A], the remaining activity at 100 µM was 71% on E. coli MurC (setting [1]); 54% on E. coli MurD (Table S1, PKIS screening); 78% on E. coli MurF (Table S1, PKIS screening).
In the case of `Cc1cc(O)cc(C)c1C=Cc1cncc(-c2nn[nH]n2)c1` [Compound 7], the “RA (%) MurC” value at E. coli MurC was determined as 70%. Also, the “RA (%) MurD” value at E. coli MurD stood at 91%. The “RA (%) MurF” value on E. coli MurF is on record as 90%.
Regarding `COc1ccc(-c2ccncc2)cc1C(N)=O` [GSK605714A], the remaining activity at 100 µM at E. coli MurC (setting [1]) came to 86%; at E. coli MurD (Table S1, PKIS screening), 91%; on E. coli MurF (Table S1, PKIS screening) it was 90%.
Take `CCCN(CCS(C)(=O)=O)Cc1ccc(-c2ccc3ncnc(Nc4ccc(OCc5cccc(F)c5)c(Cl)c4)c3c2)o1` [GW621823A]: the remaining activity at 100 µM on E. coli MurC (setting [1]) came out at 36%; at E. coli MurD (Table S1, PKIS screening), 42%; at E. coli MurF (Table S1, PKIS screening) it was 96%.
The like results for `CS(=O)(=O)CCNCc1ccc(-c2ccc3ncnc(Nc4ccc(OCc5ccccc5)cc4)c3c2)o1` [GW458787A] were, in that order, 68%, 58% and 66%.
For `CCS(=O)(=O)c1ccc(OC)c(Nc2ncc(-c3ccccc3Cl)o2)c1` [GW622055X] the same measures were 74%, 65% and 80%.
As for `COc1ccc(-c2cc(-c3c[nH]nc3-c3ccccn3)ccn2)cc1` [GW679410X#4], on E. coli MurC (Table S1, PKIS screening), the “RA [%] at 100 µM MurC” value stood at 61%. Also, the “RA [%] at 100 µM MurD” value at E. coli MurD was determined as 98%. Besides, the “RA [%] at 100 µM MurF” value at E. coli MurF (Table S1, PKIS screening) came out at 82%.
`COc1ccc2[nH]c3c4[nH]c5ccc(OC)cc5c4c4c(c3c2c1)C(=O)NC4=O` [GW296115X]: the remaining activity at 100 µM on E. coli MurC (setting [1]) came out at 100%; on E. coli MurD (Table S1, PKIS screening) it was 87%; at E. coli MurF (Table S1, PKIS screening), 100%.
Turning to `Fc1cccc(COc2ccc(Nc3ncnc4sc(-c5cccs5)cc34)cc2Cl)c1` [GW684626B], the remaining activity at 100 µM is 59% at E. coli MurC (setting [1]); 75% on E. coli MurD (Table S1, PKIS screening); 100% on E. coli MurF (Table S1, PKIS screening).
In the case of `CNC(=O)c1cncc(C=Cc2ccccc2Cl)c1` [Compound 11], on E. coli MurC, the “RA (%) MurC” value is given as 68%. Moreover, the “RA (%) MurD” value at E. coli MurD was determined as 87%. In addition, on E. coli MurF, the “RA (%) MurF” value is 90%.
`CCOc1ccc2c(-c3ccnc(Nc4cccc(C(F)(F)F)c4)n3)cnn2n1` [GW811761X]: the remaining activity at 100 µM at E. coli MurC (setting [1]) came out at 64%; on E. coli MurD (Table S1, PKIS screening), 93%; on E. coli MurF (Table S1, PKIS screening), 74%.
Consider `NS(=O)(=O)c1ccc(N/N=C2\C(=O)Nc3ccc(-c4cnco4)cc32)cc1` [GW276655X], for which the remaining activity at 100 µM at E. coli MurC (setting [1]) came to 84%; on E. coli MurD (Table S1, PKIS screening) it was 73%; on E. coli MurF (Table S1, PKIS screening), 22%.
Consider `Cc1cccc(Nc2ncc(-c3ccccc3)o2)c1` [GW632046X], for which the remaining activity at 100 µM on E. coli MurC (setting [1]) turned out to be 100%; on E. coli MurD (Table S1, PKIS screening), 84%; at E. coli MurF (Table S1, PKIS screening), 97%.
As for `c1cnn2ncc(-c3ccnc(Nc4ccc5c(c4)OCCO5)n3)c2c1` [GW806290X], the remaining activity at 100 µM at E. coli MurC (setting [1]) came to 64%; at E. coli MurD (Table S1, PKIS screening), 69%; on E. coli MurF (Table S1, PKIS screening) it was 71%.
As to `CS(=O)(=O)CCNCc1ccc(-c2ccc3ncnc(Nc4ccc(OCc5ccccc5)c(C(F)(F)F)c4)c3c2)o1` [GW574782A], the remaining activity at 100 µM at E. coli MurC (setting [1]) is 83%; at E. coli MurD (Table S1, PKIS screening), 60%; at E. coli MurF (Table S1, PKIS screening), 100%.
For the molecule `CS(=O)(=O)Nc1ccc(-c2ccc3c(NC(=O)C4CC4)n[nH]c3c2)cc1` [SB-742865], the remaining activity at 100 µM on E. coli MurC (setting [1]) is 63%; on E. coli MurD (Table S1, PKIS screening) it was 80%; on E. coli MurF (Table S1, PKIS screening), 92%.
For `c1ccc(Nc2ncc(-c3ccccc3)o2)cc1` [GW549390X], the remaining activity at 100 µM amounted to 85% on E. coli MurC (setting [1]); 92% at E. coli MurD (Table S1, PKIS screening); 93% at E. coli MurF (Table S1, PKIS screening).
Take `N#Cc1c(NC(=O)c2ccc(F)cc2)sc2c1CCCC2` [SB-347804]: the remaining activity at 100 µM at E. coli MurC (setting [1]) worked out at 87%; at E. coli MurD (Table S1, PKIS screening), 78%; at E. coli MurF (Table S1, PKIS screening), 100%.
`COc1cc(C=NNc2ncnc3c2cnn3-c2ccccc2)ccc1O` [GW513184X]: the remaining activity at 100 µM stood at 89% on E. coli MurC (setting [1]); 86% on E. coli MurD (Table S1, PKIS screening); 78% at E. coli MurF (Table S1, PKIS screening).
For `CCOc1ccc2c(-c3ccnc(Nc4cc(OC)cc(C(F)(F)F)c4)n3)cnn2n1` [GW807982X] the same measures were 55%, 78% and 50%.
`O=C(O[C@H]1CN[C@H](C#Cc2cc3ncnc(Nc4ccc5c(cnn5Cc5ccccc5)c4)c3s2)C1)N1CCOCC1` [GSK200398A]: the remaining activity at 100 µM on E. coli MurC (setting [1]) was 52%; on E. coli MurD (Table S1, PKIS screening) it was 61%; on E. coli MurF (Table S1, PKIS screening), 60%.
Regarding `Cc1cccc(-c2n[nH]cc2-c2ccc3ncccc3n2)n1` [GW786460X], the remaining activity at 100 µM on E. coli MurC (setting [1]) is 82%; at E. coli MurD, 76%; on E. coli MurF it was 91%.
As for `Cc1cc(O)cc(C)c1/C=C/c1cncc(C(N)=O)c1` [GW435821X], the remaining activity at 100 µM at E. coli MurC (setting [1]) was 89%; at E. coli MurD (Table S1, PKIS screening), 89%; at E. coli MurF (Table S1, PKIS screening), 75%.
Consider `Fc1ccc(-c2ncn(C3CCNCC3)c2-c2ccnc(Oc3ccc4c(c3)OCO4)n2)cc1` [SB-250715], for which the remaining activity at 100 µM on E. coli MurC (read-out: RA [%] at 100 µM MurC, Table S1, PKIS screening) turned out to be 51%; at E. coli MurD (Table S1, PKIS screening) it was 65%; on E. coli MurF (Table S1, PKIS screening), 85%.
As for `Nc1ncnc2occ(-c3ccc(NC(=O)Nc4cc(C(F)(F)F)ccc4F)cc3)c12` [GW770249A], the remaining activity at 100 µM came out at 60% at E. coli MurC (setting [1]); 83% at E. coli MurD (Table S1, PKIS screening); 63% at E. coli MurF (Table S1, PKIS screening).
With `CCc1cccc(CC)c1/C=C/c1cncc(C(=O)NC)c1` [GW450241X], the remaining activity at 100 µM is 67% on E. coli MurC (setting [1]); 74% at E. coli MurD (Table S1, PKIS screening); 76% on E. coli MurF (Table S1, PKIS screening).
The like results for `CN1CCC(C(=O)Nc2n[nH]c3nc(-c4ccc(O)cc4)c(Br)cc23)CC1` [SB-732881] were, in that order, 71%, 84% and 90%.
For `COc1cccc(/C=N/Nc2ncnc3c2cnn3-c2cccc(OC)c2)c1` [GW829874X] the same measures were 69%, 78% and 85%.
As for `NC(=O)c1ccc2c(-c3ccnc(NCCCO)n3)c(-c3ccc(F)cc3)nn2c1` [GW581744X], the remaining activity at 100 µM on E. coli MurC (setting [1]) came to 73%; on E. coli MurD (Table S1, PKIS screening), 74%; at E. coli MurF (Table S1, PKIS screening) it was 79%.
For `O=C1Nc2ccc(-c3cccnc3)cc2C1=Cc1cc(Br)c(O)c(Br)c1` [GW429374A] the same measures were 30%, 51% and 16%.
